Measurements from paper PMC7795662, “Alkaloids with Anti-Onchocercal Activity from Voacanga africana Stapf (Apocynaceae): Identification and Molecular Modeling” (Molecules, 2020).
Like-named read-outs stand apart in the source and are kept apart here.

Columns and labels:
[1] = test system: Onchocerca ochengi microfilariae; assay: O. ochengi microfilariae (Mf) motility assay, primary and secondary screens; format: cell-based; conditions: for inhibition at 30 µM: 24 h, read-out: % Mf Motility Reduction after 24 h; for IC50: read-out: IC50 Mf; for effect on motility of microfilariae (in words): dose-dependent manner; for SI Mf: selectivity index = IC50 on LLC-MK2 cells (CC50) / IC50 on parasites
Protocol: Briefly, Mf were prepared using the method described by Cho-Ngwa et al., with slight modifications. A few skin snips were obtained from different locations and incubated in aliquots of culture medium for 15 min, after which the emergent Mf were qualified and quantified using an inverted microscope and standard atlases. The leftover pieces of skin were shaved, rinsed, sterilized with 70% ethanol and sliced into thin slivers. The slivers were incubated in CCM for 2 h, and the emergent highly motile O. ochengi Mf were concentrated by centrifugation. The Mf were transferred to 96-well micro titer plates (15 Mf/100 μL/well) containing a fully confluent LLC-MK2 cell layer in 100 μL of CCM. This was monitored for viability and sterility for 24 h before addition of test and control compounds.
The biological assays were conducted in duplicate in the 96-well microtiter plates. The Mf were incubated with the drug for 120 h in a total of 200 μL of medium. Mf viability was assessed by microscopy once every day and motility inhibition scores were recorded. […] Motility inhibition correlates to drug activity. The positive control drug was amorcazine at 30 μM, and negative control was the diluent (DMSO).
Compounds showing 100% activity in the primary screens were re-tested as described under primary screens to determine the IC50 values. All assays were repeated at least once. The selectivity index (SI) of each extract was calculated as the ratio of the IC50 of the extract on the mammalian cell (termed CC50) to the IC50 on parasites.

[2] = test system: Onchocerca ochengi adult male worms; assay: O. ochengi adult male worm motility assay, primary and secondary screens; format: cell-based; conditions: for IC50: read-out: IC50 Adult Male Worm; for effect on motility of adult male worms (in words): dose-dependent manner; for SI Adult Male Worm: selectivity index = IC50 on LLC-MK2 cells (CC50) / IC50 on parasites
Protocol: (§1) The isolation of O. ochengi adult worms was performed as described previously by Cho-Ngwa et al.. Briefly, fresh pieces of umbilical cattle skin with palpable nodules bought from butchery in Douala, Cameroon were washed, drained and sterilized with 70% ethanol. The worms were carefully scraped out of the nodules as single masses and temporarily submerged in 1 mL complete culture medium, CCM [RPMI-1640 (Sigma-Aldrich, St. Louis, MO, USA) supplemented with 25 mM HEPES, 2 g/L sodium bicarbonate, 2 mM L-glutamine, 5% newborn calf serum (SIGMA, St. Louis, MO, USA), 150 units/mL penicillin, 150 µg/mL streptomycin and 0.5 µg/mL amphotericin B (SIGMA, St. Louis, MO, USA), pH 7.4)] using 24-well plates. The adult worms were incubated in the culture medium overnight in a CO2 incubator, during which period the male worms migrated out of the nodular masses. Only wells containing viable worms received treatment with test compounds. Damaged worms and worms from putrefied nodules were discarded. The viability of worms retained for the assay was ascertained by visual and microscopic examination of adult male worm motility using an inverted microscope.
(§2) The compounds were tested on […] at a single concentration of 30 μM, in duplicate wells. […] The female worms were removed and incubated in 500 μL of 0.5 μg/mL MTT for the last 30 min of incubation. Inhibition of formazan formation from MTT directly correlates with worm death. The worms were blotted on absorbent paper and observed visually for blue coloration against a white background. […] Auranofin at 10 μM, which had previously shown activity against O. ochengi adult worms and Mf, was used as a positive control, while negative control wells received the diluent, 2% DMSO only, previously shown to have no effect on parasite viability. The solvent DMSO (2%) was used as a negative control. […] Furthermore, the toxicity of DMSO decreases with dilution.
Adult male worm motility was evaluated with the aid of an inverted microscope.
(§3) The pure compounds with 100% activity at primary screens were re-tested as described under primary screens, in order to determine the IC50 values. The IC50 assays were performed in triplicate and each experiment repeated for confirmation. The means of all activities at a concentration were calculated and used in the statistical analyses. GraphPadPrism version 6.0 (GraphPad Software, San Diego, CA, USA) was used to generate dose response curves from which the IC50 values were obtained.

[3] = test system: Onchocerca ochengi adult female worms; assay: O. ochengi adult female worm viability, MTT/formazan assay; format: cell-based; conditions: for killing at 30 µM: read-out: % Adult Female Worm Death after 120 h; for activity on adult female worms (in words): biochemical assessment at 30 μM; for IC100 Adult Female Worm: secondary screen
Protocol: as §1, §2, §3

[4] = test system: Monkey kidney epithelial cells (LLC-MK2); assay: Cytotoxicity on monkey kidney epithelial cells, microscopic; format: cell-based; conditions: read-out: IC50 Monkey Kidney Cells (LLC-MK2)
Protocol: Monkey kidney epithelial cells (LLC-MK2) (ATCC, Manassas, VA, USA) were cultured at 37 °C in humidified air with 5% CO2 in a Hera Cell-150 incubator (Thermo Electron, Karlsruhe, Germany) until the cell layer was almost confluent. The cell suspension was dispensed into 96-well micro titer plates (200 µL/well) and kept in the incubator for 3–5 days for cells to grow and become fully confluent. These cells served as feeder layers for the Mf assays and were also used for cytotoxicity studies.
Cytotoxicity of the pure compounds with anti-onchocercal activities was assessed on LLC-MK2 cells, microscopically, on day 5 of the Mf assay. Living cells were flattened out and attached to the culture plate, while dead cells were rounded up and detached from the plate. The IC50 values for these cells were estimated from the morphological deformation data.

[5] = test system: Onchocerca ochengi adult male worms; assay: O. ochengi adult male worm motility assay, primary and secondary screens; format: cell-based; conditions: for inhibition at 30 µM: Onchocerca ochengi, 24 h, read-out: % Adult Male Worm Motility Reduction after 24 h
Onchocerca ochengi = test system: Onchocerca ochengi; design: method as in earlier work; conditions: from stem bark of V. africana; cited from earlier work
[6] = Onchocerca ochengi, primary screen, 30 μM
[7] = Onchocerca ochengi, secondary screen, motility
[8] = Primates, LLC-MK2, 120 h, cytotoxicity, day 5, estimated from morphological deformation

Row | Compound | IC50 [1, 7] [µM] | effect on motility of microfilariae (in words) [1] | IC100 Mf ([1]; secondary screen) [µM] | SI Mf [1] | IC50 ([2]; Onchocerca ochengi) [µM] | effect on motility of adult male worms (in words) [2] | IC100 Adult Male Worm ([2]; secondary screen) [µM] | SI Adult Male Worm [2] | killing at 30 µM ([3]; Onchocerca ochengi, 120 h) [%] | activity on adult female worms (in words) [3] | IC100 Adult Female Worm [3] [µM] | IC50 [4, 8] [µM] | inhibition at 30 µM [5] [%] | inhibition at 30 µM ([1]; Onchocerca ochengi) [%] | other results
1 | CC[C@H]1CC2CN3CCc4c([nH]c5ccc(OC)cc45)[C@](C(=O)OC)(C2)[C@H]13 (stereo in doubt) [Compound 2, voacangine] | 5.49 | inhibit the motility | 10 | 5.46 | 9.07 | inhibit the motility | 20 | 3.30 | 100 | moderately active | >30 | ≥ 30 | 100 | – | inhibition at 30 µM [1, 6]: 100%; activity against Onchocerca ochengi (in words) (Onchocerca ochengi): showing activity
2 | CC(=O)OC[C@H]1O[C@@H]([S-])[C@H](OC(C)=O)[C@@H](OC(C)=O)[C@@H]1OC(C)=O.CCP(CC)CC.[Au+] [Auranofin, reference compound] | – | – | – | – | – | – | – | – | – | – | – | – | – | – | % Mf Motility Reduction after 24 h ([1]; positive control, 10 μM): 100%; % Adult Female Worm Death after 120 h ([3]; positive control, 10 μM, % inhibition of formazan formation): 100%; % Adult Male Worm Motility Reduction after 24 h ([5]; positive control, 10 μM): 100%
3 | C/C=C1\CN(C)C2Cc3c([nH]c4ccccc34)[C@@H](c3cc4[nH]c5c(c4cc3OC)CCN3CC4C[C@H](CC)C3[C@@]5(C(=O)OC)C4)CC1C2C(=O)OC (stereo partly shown) [Compound 1, voacamine A] | 3.69 | inhibit the motility | 7.38 | 8.13 | 4.45 | inhibit the motility | 8.90 | 6.74 | 65 | moderately active | >30 | ≥ 30 | 100 | 100 | –
4 | COC(=O)[C@@]12C[C@@H]3C[C@H]([C@H](C)O)[C@@H]1N(CCc1c2[nH]c2ccc(OC)cc12)C3 [Compound 3, voacristine] | 4.34 | inhibit the motility | 8.68 | 6.91 | 8.07 | inhibit the motility | 16.14 | 3.71 | 50 | moderately active | >30 | ≥ 30 | 100 | – | inhibition at 30 µM [1, 6]: 100%
5 | CC[C@H]1C[C@@H]2CN3CCc4c([nH]c5ccccc45)[C@](C(=O)OC)(C2)[C@H]13 [Compound 4, coronaridine] | 4.21 | inhibit the motility | 8.42 | 7.13 | 8.68 | inhibit the motility | 17.36 | 3.45 | 50 | moderately active | >30 | ≥ 30 | 100 | – | inhibition at 30 µM [1, 6]: 100%
6 | CC[C@H]1C[C@@H]2C[C@H]3c4[nH]c5cc(OC)ccc5c4CC[N@@](C2)[C@@H]13 [Compound 5, tabernanthine] | – | almost inactive | – | – | – | almost inactive | – | – | 0 | almost inactive | – | – | 0 | 0 | –
7 | COc1ccc2[nH]c3c(c2c1)CCN1CC2CC3C1C([C@H](C)O)C2 (stereo partly shown) [Compound 6, iboxygaine] | – | inhibit the motility | 9.44 | 6.35 | 9.07 | inhibit the motility | 18.14 | 3.30 | 50 | moderately active | >30 | – | 100 | 100 | IC50 ([1]; Onchocerca ochengi): 4.72 µM; IC50 ([4]; Primates, LLC-MK2, 120 h): ≥ 30 µM
8 | C/C=C1/CN(C)C2Cc3c([nH]c4ccccc34)[C@@H](c3cc4[nH]c5c(c4cc3OC)CCN3CC4CC([C@H](C)O)C3[C@@]5(C(=O)OC)C4)CC1C2C(=O)OC (stereo partly shown) [Compound 8, voacorine] | – | inhibit the motility | 4.98 | 12.04 | 3.45 | inhibit the motility | 6.90 | 8.69 | 50 | moderately active | >30 | – | 100 | 100 | IC50 ([1]; Onchocerca ochengi): 2.49 µM; IC50 ([4]; Primates, LLC-MK2, 120 h): ≥ 30 µM
9 | CN1CCN(C(=S)Nc2ccc(Nc3ccc([N+](=O)[O-])cc3)cc2)CC1 [amocarzine, reference compound] | – | – | – | – | – | – | – | – | – | – | – | – | – | – | inhibition at 10 µM ([3]; Onchocerca ochengi, 120 h, read-out: inhibition of formazan formation in adult female worms): 100%
10 | Ivermectin [reference compound] | – | – | – | – | – | – | – | – | – | – | – | – | – | – | % Mf Motility Reduction after 24 h ([1]; positive control, 10 μg/mL): 100%
11 | voacamine [Compound 7] | – | inhibit the motility | 10 | – | – | inhibit the motility | 10 | – | – | moderately active | >30 | – | – | – | % Mf Motility Reduction after 24 h ([1]; primary screen, 30 μM): 100%; IC50 ([1]; secondary screen, motility): 2.49 µM; IC50 ([2]; secondary screen, motility): 3.45 µM; % Adult Female Worm Death after 120 h ([3]; primary screen, 30 μM, corresponds to % inhibition of formazan formation): 65%; IC50 ([4]; cytotoxicity, day 5, estimated from morphological deformation): ≥ 30 µM; % Adult Male Worm Motility Reduction after 24 h ([5]; primary screen, 30 μM): 100%; activity against Onchocerca ochengi (in words) (Onchocerca ochengi): showing activity
